According to article PMC4519872, “Characterization of the Interaction between Gallic Acid and Lysozyme by Molecular Dynamics Simulation and Optical Spectroscopy” (International Journal of Molecular Sciences, 2015):

Molecular target: T1, lysozyme (LYS) (Gallus gallus, UniProt P00698)
T1 construct: gene LYZ; commercial lysozyme, Sigma-Aldrich, >=18,000 U; single chain of 129 residues; docking model PDB 1GWD
Assay: intrinsic fluorescence quenching titration
Assay type: binding
Conditions: 298 K; Tris-HCl pH 7.43; excitation 282 nm; inner-filter corrected; double-log
Description: intrinsic fluorescence quenching titration on lysozyme (LYS)

T1 sequence (P00698 19-147): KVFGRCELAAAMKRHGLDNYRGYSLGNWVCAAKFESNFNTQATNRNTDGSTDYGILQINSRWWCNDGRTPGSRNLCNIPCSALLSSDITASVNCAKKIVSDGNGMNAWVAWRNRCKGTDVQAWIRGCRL

For O=C(O)c1cc(O)c(O)c(O)c1 [GA, 3,4,5-trihydroxybenzoic acid], the “K” value was 393000 L/mol.
